Assay results as given in patent publication US20190353647A1, “NOVEL REAL-TIME MULTIPLEXED, MULTI-COLOR BIOLUMINESCENCE RESONANCE ENERGY TRANSFER ASSAY, APPARATUS, AND USES THEREOF” (Universite de Bordeaux, priority 2016, published 2019).
Values belong to the compound of their own block, whether it stands above or below them.

Assays:
Type in all cases: cell-based
TRPV4 = TRPV4 (Homo sapiens, UniProt Q9HBA0); assay: Three-color spectral BRET, TRPV4-Luc/LSSmOrange-CaM component in mixed HEK293T cells; parameters: expressed in transfected cells; host or cells: HEK293T (mixed with two other transfected populations); settings: 100 nM GSK101 injected at 75 seconds, real time, mixed cell population
Chain of TRPV4 (Q9HBA0 whole entry): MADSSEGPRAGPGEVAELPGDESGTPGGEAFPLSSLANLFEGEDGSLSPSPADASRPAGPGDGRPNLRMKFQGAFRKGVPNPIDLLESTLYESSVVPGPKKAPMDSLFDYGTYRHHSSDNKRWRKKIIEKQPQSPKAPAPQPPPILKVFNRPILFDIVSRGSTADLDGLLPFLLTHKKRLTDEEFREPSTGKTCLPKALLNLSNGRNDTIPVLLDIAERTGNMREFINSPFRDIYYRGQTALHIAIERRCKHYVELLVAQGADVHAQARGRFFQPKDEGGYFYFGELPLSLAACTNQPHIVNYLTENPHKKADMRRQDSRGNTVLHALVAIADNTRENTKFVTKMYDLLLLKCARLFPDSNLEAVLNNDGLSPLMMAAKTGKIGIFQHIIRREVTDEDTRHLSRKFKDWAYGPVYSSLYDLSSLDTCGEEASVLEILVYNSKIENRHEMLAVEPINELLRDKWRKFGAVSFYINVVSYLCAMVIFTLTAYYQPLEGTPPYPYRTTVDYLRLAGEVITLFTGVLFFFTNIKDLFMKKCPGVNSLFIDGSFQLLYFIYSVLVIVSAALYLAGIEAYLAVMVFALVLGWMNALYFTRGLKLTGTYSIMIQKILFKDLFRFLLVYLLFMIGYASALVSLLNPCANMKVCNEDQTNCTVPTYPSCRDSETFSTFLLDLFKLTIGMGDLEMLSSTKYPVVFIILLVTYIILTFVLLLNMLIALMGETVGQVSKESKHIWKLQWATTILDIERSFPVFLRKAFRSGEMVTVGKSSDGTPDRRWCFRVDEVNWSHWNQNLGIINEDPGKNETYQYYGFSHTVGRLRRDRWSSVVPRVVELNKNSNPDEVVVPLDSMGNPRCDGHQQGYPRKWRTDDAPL
From the text: (§1) FIG. 2: Multiplexing measurements of TRPV activity using multicolor BRET. (A) Example of a three-color BRET spectrum and its decomposition, measured in a coculture containing three HEK293T subpopulations transfected with aquamarine-Luc, mAmetrine-Luc, or LSSmOrange-Luc. The grey dots represent the experimental data. Black, light grey, medium grey, and grey solid lines represent the spectral components of Luc, aquamarine, mAmetrine, and LSSmOrange, respectively. […] Results represent the mean of three independent experiments.
(§2) Full BRET spectra were acquired using an optical fiber linked to a Spectra Pro 2300i spectrometer, equipped with a liquid-nitrogen-cooled CCD camera for recording the full visible spectrum (Acton Optics, Acton, Mass., USA). The bioluminescent signal was recorded from transfected cells seeded onto a glass coverslip and placed into a white opaque measurement chamber made of Teflon® and containing an isotonic solution (NaCl 145 mM, KCl 5 mM, KH2PO4 4 mM, CaCl2 1 mM, MgSO4 1 mM, Glucose 10 mM). The temperature of the cell buffer was regulated using an Eppendorf® ThermoStat Plus and measured in real time using a fiber-optic temperature measurement Luxtron 812 system (Lumasense technologies, Santa Clara, Calif., USA). […]

TRPV1 [1] = biological target: T1, TRPV1 (Homo sapiens, UniProt Q8NER1); assay: Three-color spectral BRET, TRPV1-Luc/mAmetrine-CaM component in mixed HEK293T cells; settings: 20 μM CAPS injected at 75 seconds, real time, mixed cell population
T1 construct: expressed in transfected cells; host or cells: HEK293T
T1 sequence (Q8NER1 whole entry): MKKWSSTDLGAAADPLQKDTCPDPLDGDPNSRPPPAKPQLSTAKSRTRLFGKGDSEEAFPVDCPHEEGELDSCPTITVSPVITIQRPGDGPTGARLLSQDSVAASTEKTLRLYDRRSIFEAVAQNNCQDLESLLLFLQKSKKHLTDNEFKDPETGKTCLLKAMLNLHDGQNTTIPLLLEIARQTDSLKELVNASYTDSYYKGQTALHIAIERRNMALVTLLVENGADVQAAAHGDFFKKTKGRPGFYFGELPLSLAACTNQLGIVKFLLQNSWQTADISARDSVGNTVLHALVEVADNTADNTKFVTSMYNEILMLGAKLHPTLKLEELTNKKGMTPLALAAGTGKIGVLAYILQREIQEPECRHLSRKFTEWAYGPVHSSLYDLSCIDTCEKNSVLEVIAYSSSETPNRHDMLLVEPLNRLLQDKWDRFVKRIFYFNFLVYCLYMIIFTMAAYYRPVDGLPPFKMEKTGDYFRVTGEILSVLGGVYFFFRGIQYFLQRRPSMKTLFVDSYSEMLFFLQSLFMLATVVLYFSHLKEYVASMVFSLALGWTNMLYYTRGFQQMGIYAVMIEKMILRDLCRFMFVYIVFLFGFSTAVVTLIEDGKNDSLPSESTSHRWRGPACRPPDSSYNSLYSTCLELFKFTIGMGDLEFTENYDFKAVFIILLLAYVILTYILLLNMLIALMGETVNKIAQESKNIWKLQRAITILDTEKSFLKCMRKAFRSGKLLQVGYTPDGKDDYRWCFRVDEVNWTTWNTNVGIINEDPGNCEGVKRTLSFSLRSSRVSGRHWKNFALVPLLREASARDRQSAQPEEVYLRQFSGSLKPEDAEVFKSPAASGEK
From the text: Using the LabView programming language (National Instruments, Austin, Tex., USA), an interface was developed to run the acquisition of the bioluminescent spectra and perform real-time spectral decomposition of the BRET signal into its various components. The experimental emission spectra of Luc, YFP, mAmetrine, aquamarine, and Lss-mOrange were first obtained experimentally using a Cary Eclipse Fluorimeter (Agilent Technology, Santa Clara, Calif., USA) (FIG. 3). Each spectrum was then fitted as a sum of Gaussian curves based on Eq.3.: […]

TRPV1 [2] = biological target: T1, TRPV1; assay: Calcium assay in transfected HEK293T cells; settings: cells expressing TRPV1, YFP-TRPV1-Luc or TRPV1-Luc; not in mock-transfected cells
Experimental: TRP channel activation was evaluated in transfected HEK293T human embryonic-kidney cells. […] For this purpose, we measured calcium entry in mock-transfected or transfected HEK293T cells with either native TRPV1 or the BRET constructs, YFP-TRPV1-Luc or TRPV1-Luc.

TRPV3 = biological target: T2, TRPV3 (Homo sapiens, UniProt Q8NET8); assay: Three-color spectral BRET, Luc-TRPV3/aquamarine-CaM component in mixed HEK293T cells; parameters: expressed in transfected cells; host or cells: HEK293T (mixed with two other transfected populations); settings: one mM Drofenine injected at 75 seconds, real time, mixed cell population
T2 sequence (Q8NET8 1-790): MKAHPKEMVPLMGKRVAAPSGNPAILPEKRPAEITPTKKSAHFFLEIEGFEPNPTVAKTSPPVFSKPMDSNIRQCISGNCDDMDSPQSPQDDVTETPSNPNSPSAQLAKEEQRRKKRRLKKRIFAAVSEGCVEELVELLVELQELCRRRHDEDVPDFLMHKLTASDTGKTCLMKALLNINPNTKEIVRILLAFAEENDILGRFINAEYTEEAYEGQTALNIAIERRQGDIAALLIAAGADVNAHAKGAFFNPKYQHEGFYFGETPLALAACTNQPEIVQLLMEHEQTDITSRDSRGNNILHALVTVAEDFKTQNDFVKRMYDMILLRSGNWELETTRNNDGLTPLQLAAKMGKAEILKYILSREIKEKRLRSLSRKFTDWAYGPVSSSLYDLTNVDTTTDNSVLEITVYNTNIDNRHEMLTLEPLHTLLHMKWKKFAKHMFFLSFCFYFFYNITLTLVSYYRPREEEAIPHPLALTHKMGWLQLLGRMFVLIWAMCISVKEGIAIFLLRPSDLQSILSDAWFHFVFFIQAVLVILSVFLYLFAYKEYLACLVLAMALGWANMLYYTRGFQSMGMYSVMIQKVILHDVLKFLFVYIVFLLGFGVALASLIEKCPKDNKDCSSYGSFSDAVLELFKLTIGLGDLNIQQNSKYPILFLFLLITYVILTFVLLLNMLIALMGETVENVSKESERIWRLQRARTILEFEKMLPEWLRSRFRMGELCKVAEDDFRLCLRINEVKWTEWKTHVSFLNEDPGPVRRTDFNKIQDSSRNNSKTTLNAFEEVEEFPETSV
From the text: as §1, §2

Compound: CC(C)C[C@H](NC(=O)c1cc2ccccc2s1)C(=O)N1CCN(C(=O)[C@H](CO)NS(=O)(=O)c2ccc(Cl)cc2Cl)CC1 [GSK1016790A]
TRPV4 BRET signal in three-color assay (TRPV4): time-dependent increase

TRPV1 BRET signal in three-color assay (TRPV1 [1]): time-dependent increase
Cytosolic calcium concentration (TRPV1 [2]): rapid, maintained increase
Compound: COc1cc(CNC(=O)CCCC/C=C/C(C)C)ccc1O [CAPS, Capsaicin]

Compound: CCN(CC)CCOC(=O)C(c1ccccc1)C1CCCCC1 (stereo not shown) [Drofenine]
TRPV3-related BRET component in three-color assay (TRPV3): increase in only the TRPV3-related BRET component
